# Test results reported in patent US20210047304A1, “Bromodomain Inhibitors” (AbbVie Inc., priority 2016, published 2021).
# Molecular target: BRD4 (BDI_K57-E168) (Homo sapiens, UniProt O60885)
# Test: TR-FRET bromodomain binding assay, BRD4 BDI
row,SMILES,Ki
1,"CCNC(=O)[C@H]1CC[C@H](Oc2cc(=O)n(C)cc2-c2cc(C(C)(C)O)ccc2Oc2c(C)cc(F)cc2C)CC1 [Example 63, trans-N-ethyl-4-({5-[2-(4-fluoro-2,6-dimethylphenoxy)-5-(2-hydroxypropan-2-yl)phenyl]-1-methyl-2-oxo-1,2-dihydropyridin-4-yl}oxy)cyclohexane-1-carboxamide]",5.96 µM
2,"COCCN(C(=O)C1(C)CC1)[C@H]1CC[C@H](Oc2cc(=O)n(C)cc2-c2cc(C(C)(C)O)ccc2Oc2c(C)cc(F)cc2C)CC1 [Example 64, N-[trans-4-({5-[2-(4-fluoro-2,6-dimethylphenoxy)-5-(2-hydroxypropan-2-yl)phenyl]-1-methyl-2-oxo-1,2-dihydropyridin-4-yl}oxy)cyclohexyl]-N-(2-methoxyethyl)-1-methylcyclopropane-1-carboxamide]",1.95 µM
3,"CCOC(=O)CN(C(=O)C1(C)CC1)[C@H]1CC[C@H](Oc2cc(=O)n(C)cc2-c2cc(C(C)(C)O)ccc2Oc2c(C)cc(F)cc2C)CC1 [Example 66, ethyl N-[trans-4-({5-[2-(4-fluoro-2,6-dimethylphenoxy)-5-(2-hydroxypropan-2-yl)phenyl]-1-methyl-2-oxo-1,2-dihydropyridin-4-yl}oxy)cyclohexyl]-N-(1-methylcyclopropane-1-carbonyl)glycinate]",1.32 µM
4,"Cc1cc(F)cc(C)c1Oc1ccc(C(C)(C)O)cc1-c1cn(C)c(=O)cc1O[C@H]1CC[C@@H](C#N)CC1 [Example 68, cis-4-({5-[2-(4-fluoro-2,6-dimethylphenoxy)-5-(2-hydroxypropan-2-yl)phenyl]-1-methyl-2-oxo-1,2-dihydropyridin-4-yl}oxy)cyclohexane-1-carbonitrile]",1.95 µM
5,"Cc1cc(F)cc(C)c1Oc1ccc(C(C)(C)O)cc1-c1cn(C)c(=O)cc1O[C@H]1CC[C@H](C#N)CC1 [Example 69, trans-4-({5-[2-(4-fluoro-2,6-dimethylphenoxy)-5-(2-hydroxypropan-2-yl)phenyl]-1-methyl-2-oxo-1,2-dihydropyridin-4-yl}oxy)cyclohexane-1-carbonitrile]",7.25 µM
6,"CCNC(=O)[C@H]1CC[C@@H](Oc2cc(=O)n(C)cc2-c2cc(C(C)(C)O)ccc2Oc2c(C)cc(F)cc2C)CC1 [Example 76, cis-N-ethyl-4-({5-[2-(4-fluoro-2,6-dimethylphenoxy)-5-(2-hydroxypropan-2-yl)phenyl]-1-methyl-2-oxo-1,2-dihydropyridin-4-yl}oxy)cyclohexane-1-carboxamide]",7.69 µM
7,"Cc1cc(F)cc(C)c1Oc1ccc(C(C)(C)O)cc1-c1cn(C)c(=O)cc1O[C@H]1CC[C@H](N2C(=O)CN(C)C2=O)CC1 [Example 78, 3-[trans-4-({5-[2-(4-fluoro-2,6-dimethylphenoxy)-5-(2-hydroxypropan-2-yl)phenyl]-1-methyl-2-oxo-1,2-dihydropyridin-4-yl}oxy)cyclohexyl]-1-methylimidazolidine-2,4-dione]",4.65 µM
8,"Cc1cc(F)cc(C)c1Oc1ccc(C(C)(C)O)cc1-c1cn(C)c(=O)cc1O[C@H]1CC[C@H](N2C(=O)CCCC2=O)CC1 [Example 80, 1-[trans-4-({5-[2-(4-fluoro-2,6-dimethylphenoxy)-5-(2-hydroxypropan-2-yl)phenyl]-1-methyl-2-oxo-1,2-dihydropyridin-4-yl}oxy)cyclohexyl]piperidine-2,6-dione]",9.88 µM
9,"Cc1cc(F)cc(C)c1Oc1ccc(C(C)(C)O)cc1-c1cn(C)c(=O)cc1O[C@H]1CC[C@H](N2C(=O)[C@@H](C)N(C)C2=O)CC1 [Example 81, (5R)-3-[trans-4-({5-[2-(4-fluoro-2,6-dimethylphenoxy)-5-(2-hydroxypropan-2-yl)phenyl]-1-methyl-2-oxo-1,2-dihydropyridin-4-yl}oxy)cyclohexyl]-1,5-dimethylimidazolidine-2,4-dione]",6.74 µM
10,"Cc1cc(F)cc(C)c1Oc1ccc(C(C)(C)O)cc1-c1cn(C)c(=O)cc1O[C@H]1CC[C@H](N2C(=O)COC2=O)CC1 [Example 82, 3-[trans-4-({5-[2-(4-fluoro-2,6-dimethylphenoxy)-5-(2-hydroxypropan-2-yl)phenyl]-1-methyl-2-oxo-1,2-dihydropyridin-4-yl}oxy)cyclohexyl]-1,3-oxazolidine-2,4-dione]",1.51 µM
11,"Cc1cc(F)cc(C)c1Oc1ccc(C(C)(C)O)cc1-c1cn(C)c(=O)cc1O[C@H]1CC[C@H](NC(=O)C2(C)CC(=O)C2)CC1 [Example 87, N-[trans-4-({5-[2-(4-fluoro-2,6-dimethylphenoxy)-5-(2-hydroxypropan-2-yl)phenyl]-1-methyl-2-oxo-1,2-dihydropyridin-4-yl}oxy)cyclohexyl]-1-methyl-3-oxocyclobutane-1-carboxamide]",2.43 µM

# Second part, the molecule after the results:
row,Ki,SMILES
1,1.86 µM,"COCCCN(C(=O)C1(C)CC1)[C@H]1CC[C@H](Oc2cc(=O)n(C)cc2-c2cc(C(C)(C)O)ccc2Oc2c(C)cc(F)cc2C)CC1 [Example 65, N-[trans-4-({5-[2-(4-fluoro-2,6-dimethylphenoxy)-5-(2-hydroxypropan-2-yl)phenyl]-1-methyl-2-oxo-1,2-dihydropyridin-4-yl}oxy)cyclohexyl]-N-(3-methoxypropyl)-1-methylcyclopropane-1-carboxamide]"
2,2.83 µM,"Cc1cc(F)cc(C)c1Oc1ccc(C(C)(C)O)cc1-c1cn(C)c(=O)cc1O[C@H]1CC[C@H](C(C)(C)O)CC1 [Example 67, 5-[2-(4-fluoro-2,6-dimethylphenoxy)-5-(2-hydroxypropan-2-yl)phenyl]-4-{[trans-4-(2-hydroxypropan-2-yl)cyclohexyl]oxy}-1-methylpyridin-2(1H)-one]"
3,4.1 µM,"COCC1(C(=O)N[C@H]2CC[C@H](Oc3cc(=O)n(C)cc3-c3cc(C(C)(C)O)ccc3Oc3c(C)cc(F)cc3C)CC2)CC1 [Example 70, N-[trans-4-({5-[2-(4-fluoro-2,6-dimethylphenoxy)-5-(2-hydroxypropan-2-yl)phenyl]-1-methyl-2-oxo-1,2-dihydropyridin-4-yl}oxy)cyclohexyl]-1-(methoxymethyl)cyclopropane-1-carboxamide]"
4,5.08 µM,"COCC(C)(C)C(=O)N[C@H]1CC[C@H](Oc2cc(=O)n(C)cc2-c2cc(C(C)(C)O)ccc2Oc2c(C)cc(F)cc2C)CC1 [Example 71, N-[trans-4-({5-[2-(4-fluoro-2,6-dimethylphenoxy)-5-(2-hydroxypropan-2-yl)phenyl]-1-methyl-2-oxo-1,2-dihydropyridin-4-yl}oxy)cyclohexyl]-3-methoxy-2,2-dimethylpropanamide]"
5,2.26 µM,"Cc1cc(F)cc(C)c1Oc1ccc(C(C)(C)O)cc1-c1cn(C)c(=O)cc1O[C@H]1CC[C@H](NC(=O)C2(C)COC2)CC1 [Example 73, N-[trans-4-({5-[2-(4-fluoro-2,6-dimethylphenoxy)-5-(2-hydroxypropan-2-yl)phenyl]-1-methyl-2-oxo-1,2-dihydropyridin-4-yl}oxy)cyclohexyl]-3-methyloxetane-3-carboxamide]"
6,> 13 µM,"Cc1cc(F)cc(C)c1Oc1ccc(C(C)(C)O)cc1-c1cn(C)c(=O)cc1O[C@H]1CC[C@@H](C(C)(C)O)CC1 [Example 74, 5-[2-(4-fluoro-2,6-dimethylphenoxy)-5-(2-hydroxypropan-2-yl)phenyl]-4-{[cis-4-(2-hydroxypropan-2-yl)cyclohexyl]oxy}-1-methylpyridin-2(1H)-one]"
7,> 13 µM,"Cc1cc(F)cc(C)c1Oc1ccc(C(C)(C)O)cc1-c1cn(C)c(=O)cc1O[C@H]1CC[C@@H](C(=O)O)CC1 [Example 75, cis-4-({5-[2-(4-fluoro-2,6-dimethylphenoxy)-5-(2-hydroxypropan-2-yl)phenyl]-1-methyl-2-oxo-1,2-dihydropyridin-4-yl}oxy)cyclohexane-1-carboxylic acid]"
8,> 13 µM,"Cc1cc(F)cc(C)c1Oc1ccc(C(C)(C)O)cc1-c1cn(C)c(=O)cc1O[C@H]1CC[C@@H](C(=O)N2CCCC2)CC1 [Example 77, 5-[2-(4-fluoro-2,6-dimethylphenoxy)-5-(2-hydroxypropan-2-yl)phenyl]-1-methyl-4-{[cis-4-(pyrrolidine-1-carbonyl)cyclohexyl]oxy}pyridin-2(1H)-one]"
9,2.53 µM,"Cc1cc(F)cc(C)c1Oc1ccc(C(C)(C)O)cc1-c1cn(C)c(=O)cc1O[C@H]1CC[C@H](NC(=O)C(C)(C)CCCO)CC1 [Example 79, N-[trans-4-({5-[2-(4-fluoro-2,6-dimethylphenoxy)-5-(2-hydroxypropan-2-yl)phenyl]-1-methyl-2-oxo-1,2-dihydropyridin-4-yl}oxy)cyclohexyl]-5-hydroxy-2,2-dimethylpentanamide]"
10,5.89 µM,"Cc1cc(F)cc(C)c1Oc1ccc(C(C)(C)O)cc1-c1cn(C)c(=O)cc1O[C@H]1CC[C@H](N2C(=O)[C@H](C)N(C)C2=O)CC1 [Example 83, (5S)-3-[trans-4-({5-[2-(4-fluoro-2,6-dimethylphenoxy)-5-(2-hydroxypropan-2-yl)phenyl]-1-methyl-2-oxo-1,2-dihydropyridin-4-yl}oxy)cyclohexyl]-1,5-dimethylimidazolidine-2,4-dione]"
11,> 13 µM,"CC(=O)NC1CCC(C)(Oc2cc(=O)n(C)cc2-c2cc(C(C)(C)O)ccc2Oc2c(C)cc(F)cc2C)CC1 (stereo not drawn) [Example 84, N-[trans-4-({5-[2-(4-fluoro-2,6-dimethylphenoxy)-5-(2-hydroxypropan-2-yl)phenyl]-1-methyl-2-oxo-1,2-dihydropyridin-4-yl}oxy)-4-methylcyclohexyl]acetamide]"
12,2.27 µM,"Cc1cc(F)cc(C)c1Oc1ccc(C(C)(C)O)cc1-c1cn(C)c(=O)cc1O[C@H]1CC[C@H](NC(=O)C2(C#N)CC2)CC1 [Example 85, 1-cyano-N-[trans-4-({5-[2-(4-fluoro-2,6-dimethylphenoxy)-5-(2-hydroxypropan-2-yl)phenyl]-1-methyl-2-oxo-1,2-dihydropyridin-4-yl}oxy)cyclohexyl]cyclopropane-1-carboxamide]"
13,3.98 µM,"Cc1cc(F)cc(C)c1Oc1ccc(C(C)(C)O)cc1-c1cn(C)c(=O)cc1O[C@H]1CC[C@H](NC(=O)C2(C#N)CCC2)CC1 [Example 88, 1-cyano-N-[trans-4-({5-[2-(4-fluoro-2,6-dimethylphenoxy)-5-(2-hydroxypropan-2-yl)phenyl]-1-methyl-2-oxo-1,2-dihydropyridin-4-yl}oxy)cyclohexyl]cyclobutane-1-carboxamide]"
